Assay results taken from paper PMC8200523, “Designing and Development of FRET-Based Nanosensor for Real Time Analysis of N-Acetyl-5-Neuraminic Acid in Living Cells” (Frontiers in Nutrition, 2021).

Legend:
[1] = biological target: T1, FLIP-SA (ECFP-SiaP-Venus); sialic acid periplasmic binding protein SiaP (Haemophilus influenzae, UniProt P44542); assay: FRET ratio ([…] nm) titration of purified ECFP-SiaP-Venus sensor; conditions: PBS 20 mM, pH 6.5-7.0; sensor 0.20 mg/ml; NeuAc 1 nM-1 M; text prints ~157 μM
T1 construct: SiaP without signal peptide and stop codon, inserted at KpnI site between ECFP (N-term) and Venus (C-term); His6 tag of pRSET-B; E. coli BL21(DE3), Ni-NTA

[2] = biological target: FLIP-SA (ECFP-SiaP-Venus); sialic acid periplasmic binding protein SiaP (Haemophilus influenzae, UniProt P44542, R150D); conditions: PBS 20 mM, pH 6.5-7.0; sensor 0.20 mg/ml
[3] = biological target: FLIP-SA (ECFP-SiaP-Venus); sialic acid periplasmic binding protein SiaP (Haemophilus influenzae, UniProt P44542, D72K); conditions: PBS 20 mM, pH 6.5-7.0; sensor 0.20 mg/ml
[4] = biological target: FLIP-SA (ECFP-SiaP-Venus); sialic acid periplasmic binding protein SiaP (Haemophilus influenzae, UniProt P44542, E90N); conditions: PBS 20 mM, pH 6.5-7.0; sensor 0.20 mg/ml
FLIP-SA (ECFP-SiaP-Venus); sialic acid periplasmic binding protein SiaP (Haemophilus influenzae, UniProt P44542, E90N), sequence (P44542 24-329 E90N): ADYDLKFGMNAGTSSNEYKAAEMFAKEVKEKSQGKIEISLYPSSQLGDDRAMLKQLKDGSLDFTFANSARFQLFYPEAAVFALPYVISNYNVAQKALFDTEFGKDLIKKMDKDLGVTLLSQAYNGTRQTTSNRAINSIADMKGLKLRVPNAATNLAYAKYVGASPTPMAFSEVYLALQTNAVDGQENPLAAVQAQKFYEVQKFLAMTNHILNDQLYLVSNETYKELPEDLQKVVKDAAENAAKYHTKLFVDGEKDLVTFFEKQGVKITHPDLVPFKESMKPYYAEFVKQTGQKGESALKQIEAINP

FLIP-SA (ECFP-SiaP-Venus); sialic acid periplasmic binding protein SiaP (Haemophilus influenzae, UniProt P44542, D72K), sequence (P44542 24-329 D72K): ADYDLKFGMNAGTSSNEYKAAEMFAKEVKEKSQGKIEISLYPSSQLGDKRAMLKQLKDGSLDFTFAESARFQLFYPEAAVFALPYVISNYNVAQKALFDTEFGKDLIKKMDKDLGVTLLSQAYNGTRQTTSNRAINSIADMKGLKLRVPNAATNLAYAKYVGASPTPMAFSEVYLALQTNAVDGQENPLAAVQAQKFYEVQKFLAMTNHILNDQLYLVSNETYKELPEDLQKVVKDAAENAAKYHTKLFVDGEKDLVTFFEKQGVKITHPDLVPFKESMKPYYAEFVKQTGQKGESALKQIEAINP
T1 sequence (P44542 24-329): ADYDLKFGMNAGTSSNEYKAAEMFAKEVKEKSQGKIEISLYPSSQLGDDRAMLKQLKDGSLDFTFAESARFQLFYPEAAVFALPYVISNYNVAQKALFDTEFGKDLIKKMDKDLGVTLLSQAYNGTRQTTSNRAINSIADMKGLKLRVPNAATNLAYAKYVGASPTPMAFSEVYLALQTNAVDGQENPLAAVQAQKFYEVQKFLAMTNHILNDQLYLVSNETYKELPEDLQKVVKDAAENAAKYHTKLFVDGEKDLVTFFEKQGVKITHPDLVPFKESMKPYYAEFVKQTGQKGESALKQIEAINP
FLIP-SA (ECFP-SiaP-Venus); sialic acid periplasmic binding protein SiaP (Haemophilus influenzae, UniProt P44542, R150D), sequence (P44542 24-329 R150D): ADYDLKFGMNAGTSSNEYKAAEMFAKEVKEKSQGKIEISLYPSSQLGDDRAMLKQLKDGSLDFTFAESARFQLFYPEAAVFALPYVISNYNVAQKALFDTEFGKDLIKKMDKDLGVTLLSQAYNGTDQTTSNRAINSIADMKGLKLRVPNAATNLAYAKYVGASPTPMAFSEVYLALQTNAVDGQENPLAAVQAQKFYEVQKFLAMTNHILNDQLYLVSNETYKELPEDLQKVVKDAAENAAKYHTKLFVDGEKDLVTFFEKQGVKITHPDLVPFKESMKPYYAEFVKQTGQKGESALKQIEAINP

CC(=O)N[C@H]1[C@H]([C@H](O)[C@H](O)CO)OC(O)(C(=O)O)C[C@@H]1O (stereo partly shown) [NeuAc]
Kd [1]: 157 µM
Kd [2]: 0.51 µM
Kd [3]: 0.013 µM
Kd [4]: 600 µM
